Results from patent US20240041877A1, “DOSAGE REGIME AND METHOD FOR TREATING PULMONARY ARTERIAL HYPERTENSION” (Altavant Sciences GmbH, priority 2019, published 2024).

Assay: Study KAR5585-101 Part 1 (SAD): plasma pharmacokinetics after a single oral dose of KAR5585, fasting and fed (incl. dose proportionality and food effect)
Details: for AUC(0-inf) / AUC / concentration at 12 h / Cmax / AUC(0-t) / half-life / Tmax: human, plasma, po; for AUC: AUC0-tau
[1] = 400 mg, Geometric Mean, Cohort 3A (Fasting), 400 mg KAR5585 single oral dose, fasting
[2] = 400 mg, Geometric Mean, Cohort 3B (Fed), 400 mg KAR5585 single oral dose, fed
[3] = 400 mg, KAR5417 after 400 mg KAR5585 single oral, fasted, Cohort 3A, Geo. Mean
[4] = 400 mg, KAR5417 after 400 mg KAR5585 single oral, fasted, Cohort 3A, Mean
[5] = 400 mg, KAR5417 after 400 mg KAR5585 single oral, fed, Cohort 3B, Geo. Mean
[6] = 400 mg, KAR5417 after 400 mg KAR5585 single oral, fed, Cohort 3B, Mean
[7] = 700 mg, KAR5417 after 700 mg KAR5585 single oral, fasted, Cohort 4, Geo. Mean
[8] = 700 mg, KAR5417 after 700 mg KAR5585 single oral, fasted, Cohort 4, Mean
[9] = 1200 mg, KAR5417 after 1200 mg KAR5585 single oral, fasted, Cohort 5, Geo. Mean
[10] = 1200 mg, KAR5417 after 1200 mg KAR5585 single oral, fasted, Cohort 5, Mean
[11] = 2000 mg, KAR5417 after 2000 mg KAR5585 single oral, fasted, Cohort 6, Geo. Mean
[12] = 2000 mg, KAR5417 after 2000 mg KAR5585 single oral, fasted, Cohort 6, Mean

Experimental: Food effect was to be evaluated in Part 1, Period 2. Part 2 was permitted to begin before Part 1 was completed and, in each part, the data from each dose Cohort were to be reviewed for safety before the next dose Cohort was enrolled.
Part 1 had 6 Cohorts of 12 subjects each (for a total of 72 subjects) and Part 2 had 4 Cohorts of 12 subjects each (for a total of 48 subjects). In Part 1, the 12 subjects in Cohort 3 (400 mg)were studied twice, once under fasting conditions (Period 1) and once under fed conditions (Period 2) for food-effect assessment.
Pharmacokinetic data were to be summarized descriptively.

Nc1nc(O[C@H](c2ccc(Cl)cc2-c2ccccc2)C(F)(F)F)cc(N2CCC3(CC2)CN[C@H](C(=O)O)C3)n1 [KAR5417, (S)-8-(2-amino-6-((R)-1-(5-chloro-[1,1T-biphenyl]-2-yl)-2,2,2-trifluoroeth-oxy)pyrimidin-4-yl)-2,8-diazaspiro[4.5]decane-3-carboxylic acid]
AUC(0-inf) (400 mg, AUC0-inf, Geometric Mean, Cohort 3A (Fasting), 400 mg KAR5585 single oral dose, fasting): 3280 ng·h/mL | AUC(0-inf) (400 mg, AUC0-inf, Geometric Mean, Cohort 3B (Fed), 400 mg KAR5585 single oral dose, fed): 6630 ng·h/mL | AUC [1]: 3120 ng·h/mL | AUC [2]: 6360 ng·h/mL | AUC [3]: 3120 ng·h/mL | AUC [4]: 3500 ng·h/mL | AUC [5]: 6360 ng·h/mL | AUC [6]: 6440 ng·h/mL | AUC(0-inf) (400 mg, AUC0-∞, KAR5417 after 400 mg KAR5585 single oral, fasted, Cohort 3A, Geo. Mean): 3280 ng·h/mL | AUC(0-inf) (400 mg, AUC0-∞, KAR5417 after 400 mg KAR5585 single oral, fasted, Cohort 3A, Mean): 3650 ng·h/mL | AUC(0-inf) (400 mg, AUC0-∞, KAR5417 after 400 mg KAR5585 single oral, fed, Cohort 3B, Geo. Mean): 6630 ng·h/mL | AUC(0-inf) (400 mg, AUC0-∞, KAR5417 after 400 mg KAR5585 single oral, fed, Cohort 3B, Mean): 6710 ng·h/mL | concentration at 12 h (400 mg, C12, KAR5417 after 400 mg KAR5585 single oral, fasted, Cohort 3A, Geo. Mean): 75.2 ng/mL | concentration at 12 h (400 mg, C12, KAR5417 after 400 mg KAR5585 single oral, fasted, Cohort 3A, Mean): 82.5 ng/mL | concentration at 12 h (400 mg, C12, KAR5417 after 400 mg KAR5585 single oral, fed, Cohort 3B, Geo. Mean): 165 ng/mL | concentration at 12 h (400 mg, C12, KAR5417 after 400 mg KAR5585 single oral, fed, Cohort 3B, Mean): 169 ng/mL | Cmax [1]: 444 ng/mL | Cmax [2]: 831 ng/mL | Cmax [3]: 444 ng/mL | Cmax [4]: 485 ng/mL | Cmax [5]: 831 ng/mL | Cmax [6]: 860 ng/mL | AUC(0-t) (400 mg, Plasma AUC0-96, KAR5417 in plasma, 400 mg (fasted) KAR5585 single oral dose, mean): 3630 ng·h/mL | AUC(0-t) (400 mg, Plasma AUC0-96, KAR5417 in plasma, 400 mg (fed) KAR5585 single oral dose, mean): 6590 ng·h/mL | half-life (400 mg, t1/2, KAR5417 after 400 mg KAR5585 single oral, fasted, Cohort 3A, Geo. Mean): 9.29 h | half-life (400 mg, t1/2, KAR5417 after 400 mg KAR5585 single oral, fasted, Cohort 3A, Mean): 11.3 h | half-life (400 mg, t1/2, KAR5417 after 400 mg KAR5585 single oral, fed, Cohort 3B, Geo. Mean): 19.8 h | half-life (400 mg, t1/2, KAR5417 after 400 mg KAR5585 single oral, fed, Cohort 3B, Mean): 20.5 h | Tmax (400 mg, tmax, KAR5417 after 400 mg KAR5585 single oral, fasted, Cohort 3A, Median): 4 h | Tmax (400 mg, tmax, KAR5417 after 400 mg KAR5585 single oral, fed, Cohort 3B, Median): 4 h | AUC(0-t) (700 mg, AUC0-12, KAR5417 after 700 mg KAR5585 single oral, fasted, Cohort 4, Geo. Mean): 3050 ng·h/mL | AUC(0-t) (700 mg, AUC0-12, KAR5417 after 700 mg KAR5585 single oral, fasted, Cohort 4, Mean): 4350 ng·h/mL | AUC(0-t) (700 mg, AUC0-24, KAR5417 after 700 mg KAR5585 single oral, fasted, Cohort 4, Geo. Mean): 3720 ng·h/mL | AUC(0-t) (700 mg, AUC0-24, KAR5417 after 700 mg KAR5585 single oral, fasted, Cohort 4, Mean): 5310 ng·h/mL | AUC [7]: 3870 ng·h/mL | AUC [8]: 5840 ng·h/mL | AUC(0-inf) (700 mg, AUC0-∞, KAR5417 after 700 mg KAR5585 single oral, fasted, Cohort 4, Geo. Mean): 4170 ng·h/mL | AUC(0-inf) (700 mg, AUC0-∞, KAR5417 after 700 mg KAR5585 single oral, fasted, Cohort 4, Mean): 6020 ng·h/mL | concentration at 12 h (700 mg, C12, KAR5417 after 700 mg KAR5585 single oral, fasted, Cohort 4, Geo. Mean): 93.8 ng/mL | concentration at 12 h (700 mg, C12, KAR5417 after 700 mg KAR5585 single oral, fasted, Cohort 4, Mean): 144 ng/mL | Cmax [7]: 544 ng/mL | Cmax [8]: 778 ng/mL | AUC(0-t) (700 mg, Plasma AUC0-96, KAR5417 in plasma, 700 mg KAR5585 single oral dose, mean): 5990 ng·h/mL | half-life (700 mg, t1/2, KAR5417 after 700 mg KAR5585 single oral, fasted, Cohort 4, Mean): 13.5 h | Tmax (700 mg, tmax, KAR5417 after 700 mg KAR5585 single oral, fasted, Cohort 4, Median): 4 h | AUC(0-t) (1200 mg, AUC0-12, KAR5417 after 1200 mg KAR5585 single oral, fasted, Cohort 5, Geo. Mean): 4580 ng·h/mL | AUC(0-t) (1200 mg, AUC0-12, KAR5417 after 1200 mg KAR5585 single oral, fasted, Cohort 5, Mean): 5350 ng·h/mL | AUC(0-t) (1200 mg, AUC0-24, KAR5417 after 1200 mg KAR5585 single oral, fasted, Cohort 5, Geo. Mean): 5810 ng·h/mL | AUC(0-t) (1200 mg, AUC0-24, KAR5417 after 1200 mg KAR5585 single oral, fasted, Cohort 5, Mean): 6790 ng·h/mL | AUC [9]: 6580 ng·h/mL | AUC [10]: 7700 ng·h/mL | AUC(0-inf) (1200 mg, AUC0-∞, KAR5417 after 1200 mg KAR5585 single oral, fasted, Cohort 5, Geo. Mean): 6880 ng·h/mL | AUC(0-inf) (1200 mg, AUC0-∞, KAR5417 after 1200 mg KAR5585 single oral, fasted, Cohort 5, Mean): 7970 ng·h/mL | concentration at 12 h (1200 mg, C12, KAR5417 after 1200 mg KAR5585 single oral, fasted, Cohort 5, Geo. Mean): 175 ng/mL | concentration at 12 h (1200 mg, C12, KAR5417 after 1200 mg KAR5585 single oral, fasted, Cohort 5, Mean): 213 ng/mL | Cmax [9]: 764 ng/mL | Cmax [10]: 896 ng/mL | AUC(0-t) (1200 mg, Plasma AUC0-96, KAR5417 in plasma, 1200 mg KAR5585 single oral dose, mean): 7910 ng·h/mL | half-life (1200 mg, t1/2, KAR5417 after 1200 mg KAR5585 single oral, fasted, Cohort 5, Geo. Mean): 14 h | half-life (1200 mg, t1/2, KAR5417 after 1200 mg KAR5585 single oral, fasted, Cohort 5, Mean): 14.9 h | Tmax (1200 mg, tmax, KAR5417 after 1200 mg KAR5585 single oral, fasted, Cohort 5, Median): 6 h | AUC(0-t) (2000 mg, AUC0-12, KAR5417 after 2000 mg KAR5585 single oral, fasted, Cohort 6, Geo. Mean): 6550 ng·h/mL | AUC(0-t) (2000 mg, AUC0-12, KAR5417 after 2000 mg KAR5585 single oral, fasted, Cohort 6, Mean): 6910 ng·h/mL | AUC(0-t) (2000 mg, AUC0-24, KAR5417 after 2000 mg KAR5585 single oral, fasted, Cohort 6, Geo. Mean): 8520 ng·h/mL | AUC(0-t) (2000 mg, AUC0-24, KAR5417 after 2000 mg KAR5585 single oral, fasted, Cohort 6, Mean): 9080 ng·h/mL | AUC [11]: 9880 ng·h/mL | AUC [12]: 10600 ng·h/mL | AUC(0-inf) (2000 mg, AUC0-∞, KAR5417 after 2000 mg KAR5585 single oral, fasted, Cohort 6, Geo. Mean): 10200 ng·h/mL | AUC(0-inf) (2000 mg, AUC0-∞, KAR5417 after 2000 mg KAR5585 single oral, fasted, Cohort 6, Mean): 10900 ng·h/mL | concentration at 12 h (2000 mg, C12, KAR5417 after 2000 mg KAR5585 single oral, fasted, Cohort 6, Geo. Mean): 280 ng/mL | concentration at 12 h (2000 mg, C12, KAR5417 after 2000 mg KAR5585 single oral, fasted, Cohort 6, Mean): 354 ng/mL | Cmax [11]: 1030 ng/mL | Cmax [12]: 1080 ng/mL | AUC(0-t) (2000 mg, Plasma AUC0-96, KAR5417 in plasma, 2000 mg KAR5585 single oral dose, mean): 10700 ng·h/mL | half-life (2000 mg, t1/2, KAR5417 after 2000 mg KAR5585 single oral, fasted, Cohort 6, Geo. Mean): 22.1 h | half-life (2000 mg, t1/2, KAR5417 after 2000 mg KAR5585 single oral, fasted, Cohort 6, Mean): 22.6 h | Tmax (2000 mg, tmax, KAR5417 after 2000 mg KAR5585 single oral, fasted, Cohort 6, Median): 5 h | Tmax (median tmax, range across cohorts, single oral 100-2000 mg KAR5585, fasting cohorts): 3 to 6 h | time by which all subjects had measurable concentrations (postdose, single oral KAR5585): ≤ 0.25 h | time concentrations remained above the LLOQ (single 100 mg KAR5585, fasting): up to 12 hours | time concentrations remained above the LLOQ (single 200 mg KAR5585, fasting): ≤ 24 h | time concentrations remained above the LLOQ / measurable (single 400 mg KAR5585, fasting): ≤ 36 h | time concentrations remained above the LLOQ (single 700 mg KAR5585, fasting): ≤ 48 h | time concentrations remained above the LLOQ (single 1200 mg KAR5585, fasting): ≤ 48 h | time concentrations remained above the LLOQ (single 2000 mg KAR5585, fasting): ≤ 72 h | dose proportionality of AUC0-inf and Cmax (power model, 95% CI of slope) (single dose range 100 to 2000 mg KAR5585, fasting): dose proportionality was concluded | plasma concentrations of KAR5417 relative to plasma concentrations of KAR5585 (single oral KAR5585, fasting): approximately 10 fold
